Tests used:
[1] = W/O emulsion, substantivity on skin model (water resistance, watering test); assay type: physicochemical, sheep; details: amount found after 20 min watering relative to unwatered sample, isopropanol extract, GC, converted to the logarithm
Procedure: (§1) The amounts of the cosmetic auxiliaries found in the phase to be cared for are compared with the amount found in the cosmetic phase (relative partition parameters). These values are converted to the logarithm and entered as activity values into the regression table (Table 1). Using various methods, regression against the COSMO-RS and other descriptors (e.g. clogP and boiling point) are carried out, and the best correlation according to the validation is selected. In all of the regression equations belonging to the examples, cosmetic auxiliaries with a deviation in the regression of more than +/−0.43 log units from the experimental value are defined as outliers. […] In the next step, the COSMO-RS regression equation is linked to the regression table which contains all descriptors for all cosmetic auxiliaries. The use of the COSMO-RS regression equation on all cosmetic auxiliaries gives the prediction for the logarithmic relative partition parameters for all cosmetic auxiliaries. These values are then used for the manufacture of cosmetic products. The procedure is analogous in all examples.
(§2) The example reflects the substantivity of a sunscreen emulsion. The emulsion is applied to a skin model (sheep shorn wool, because of the content of wool grease), and the substantivity thereto is tested using a watering test. The emulsion is prepared in the generally customary manner. The UV filters and a mixture of 39 odorants are incorporated in accordance with the formulations. 0.10 g of this emulsion is applied to a section of the skin model 5×10 cm in size. After drying for 30 min, the sample is stirred for 20 min in 4.5 l of water at room temperature. The sample is left to dry for 12 hours and then boiled for 10 min with 60 ml of isopropanol in a closed system. The extract is transferred to a measuring flask and made up to 100 ml. 0.10 g of the emulsion is applied to another section of the skin model. After drying for 12 hours, it is extracted with isopropanol as above. The extracts are injected in equal amounts one after the other into a GC injector, and gas chromatograms are recorded. The amounts of the UV filters and odorants found in the extracts are compared with one another (relative partition parameters). The analytical results are then used mathematically as described above.

[2] = O/W emulsion, substantivity on skin model (water resistance, watering test); assay type: physicochemical, sheep; details: amount found after 20 min watering relative to unwatered sample, isopropanol extract, GC, converted to the logarithm
Procedure: as §1, §2

Row | SMILES | Activity (logarithmic partition parameter for substantivity on a skin model) [1] | Activity (logarithmic partition parameter for substantivity on a skin model) [2]
1 | CC(=O)/C=C/C1=C(C)CCCC1(C)C [Ionone, beta] | 0.1556 | 
2 | COc1ccc(C=CC(=O)OCCC(C)C)cc1 [Neo Heliopan ® E1000, Isoamyl p-Methoxycinnamate] | −0.2128 | −0.0762
3 | CC(C)CCOC(=O)c1ccccc1O [Isoamyl salicylate] | −0.2740 | −0.0960
4 | CC(=O)O[C@]1(C)CC[C@@]23C[C@@H]1C(C)(C)[C@@H]2CC[C@H]3C [Cedryl acetate] | −0.0170 | −0.0330
5 | O=C1CCCCCCCCCCCC(=O)OCCO1 [Ethylene brassylate] | −0.0476 | 0.0010
6 | C=C1C2CCC(C2)C1(C)C (centres unmarked) [Camphene] | −0.2420 | 
7 | CC1CC(OC(=O)c2ccccc2O)CC(C)(C)C1 (centres unmarked) [Neo Heliopan ® HMS, Homosalate] | −0.2733 | −0.1571
8 | C[C@@H]1CC[C@H]2C(C)(C)[C@H]3C[C@@]12CC[C@@]3(C)O [Cedrol] | −0.0111 | −0.0320
9 | Cc1ccc(C=C2C(=O)C3(C)CCC2C3(C)C)cc1 (centres unmarked) [Neo Heliopan ® MBC, 4-Methylbenzylidene Camphor] | −0.2018 | −0.0966
10 | CC(=O)/C=C/C1C(C)=CCCC1(C)C (stereo not drawn) [Ionone alpha] | −0.0120 | 
11 | CC1CCC(C(C)C)C(OC(=O)c2ccccc2N)C1 (centres unmarked) [Neo Heliopan ® MA, Menthyl anthranilate] | −0.2300 | −0.1314
12 | CCCCCC/C(C=O)=C\c1ccccc1 [Hexylcinnamaldehyde, alpha] | −0.1399 | −0.1250
13 | CC1=CCC2CC1C2(C)C (stereo not drawn) [alpha-Pinene] | −0.2470 | 
14 | COc1ccc(C(=O)CC(=O)c2ccc(C(C)(C)C)cc2)cc1 [Neo Heliopan ® NH 357] | −0.1879 | −0.1922
15 | CCCCC(CC)COC(=O)c1ccccc1O (centres unmarked) [Neo Heliopan ® OS, 2-Ethylhexylsalicylate] | −0.2497 | −0.1464
16 | COc1ccc(C(=O)c2ccccc2)c(O)c1 [Neo Heliopan ® BB, Benzophenone-3] | −0.2689 | −0.1595
17 | O=C(OCc1ccccc1)c1ccccc1O [Benzyl salicylate] | −0.1480 | −0.1300
18 | CC(C=O)Cc1ccc(C(C)(C)C)cc1 (centres unmarked) [Lilial] | −0.2120 | −0.1280

From patent US20020146441A1, “Selection method for cosmetic auxiliaries” (priority 2000, published 2002)
